Measurements from PMC7613620, “Reaction hijacking of tyrosine tRNA synthetase as a whole-of-life-cycle antimalarial strategy” (Science (New York, N.Y.), 2022).
Read-outs that look alike come from different tables or passages of the source.

Tests used:
HCT116 = HCT116 cell viability (ATP content); type: cell-based; settings: Homo sapiens, HCT-116, 72 h, read-out: HCT116 IC50(72h)
Method: 574 H1650 is a human lung cancer derived ATG7-null cell line (49) that can be used to assess effects on targets
576 adenocarcinoma; bronchoalveolar carcinoma). Other cells lines used are: H460 (NCI-H460; human lung;
577 carcinoma; large cell lung cancer; ATCC: HTB-177); and HCT116 (human colon; colorectal carcinoma;
578 ATCC: CCL-247; Lot : 5056139). Each of the cell lines was received from the American Type Culture
579 Collection (ATCC) and passaged twice before freezing. Cells were cultured in the presence or absence of
580 inhibitors and cell viability was assessed by comparing the ATP content in compound-treated wells with
581 that in DMSO-treated wells as previously described (11). […]
585 37°C humidified incubator as adherent semi-confluent monolayers in complete Dulbecco’s Modified Eagle
586 Media (c-DMEM). DMEM (Gibco™, Thermo Fisher Scientific, Australia) was supplemented with 10%

human Atg7 = human Atg7 (Homo sapiens, UniProt O95352); assay: E1-E2 transthiolation HTRF assay, ATG7 (RH-GABARAP); type: biochemical
Sequence of human Atg7 (O95352 whole entry): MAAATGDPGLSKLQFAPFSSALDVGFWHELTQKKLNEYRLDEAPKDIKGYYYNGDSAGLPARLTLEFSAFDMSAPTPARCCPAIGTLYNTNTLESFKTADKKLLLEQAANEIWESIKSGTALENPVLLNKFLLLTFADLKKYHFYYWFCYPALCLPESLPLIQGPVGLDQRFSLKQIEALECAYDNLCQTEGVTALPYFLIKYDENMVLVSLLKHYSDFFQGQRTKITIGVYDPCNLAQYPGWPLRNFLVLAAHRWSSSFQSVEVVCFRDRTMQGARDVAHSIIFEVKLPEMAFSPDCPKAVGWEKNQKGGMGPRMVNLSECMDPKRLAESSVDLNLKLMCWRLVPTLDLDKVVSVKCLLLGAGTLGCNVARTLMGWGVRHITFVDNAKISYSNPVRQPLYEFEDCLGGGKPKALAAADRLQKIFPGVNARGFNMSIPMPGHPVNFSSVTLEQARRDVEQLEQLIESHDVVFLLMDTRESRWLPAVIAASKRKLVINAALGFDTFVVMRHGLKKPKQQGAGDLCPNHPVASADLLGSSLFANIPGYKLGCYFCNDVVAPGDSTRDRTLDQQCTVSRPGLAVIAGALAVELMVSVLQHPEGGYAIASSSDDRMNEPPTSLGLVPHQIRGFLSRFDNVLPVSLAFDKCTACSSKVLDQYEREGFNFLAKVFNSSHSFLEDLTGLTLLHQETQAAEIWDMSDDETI
Source text: 592 E1-E2 Transthiolation Assays
593 An Homogeneous Time-Resolved Fluorescence (HTRF) enzyme assay was employed to evaluate
594 compound activity against ATG7 as previously described (11). In this assay, a Flag-tagged ATG8 homolog
595 (GABA type A receptor-associated protein; GABARAP) is activated by ATG7 and then transthiolated to a
596 GST-tagged E2 (ATG3). The product of the enzyme reaction, Flag-GABARAP-ATG3-GST, is quantified
597 by measuring FRET between Europium-Cryptate labelled monoclonal anti-Flag M2 (CisBio International,
598 Cat# 61FG2KLB) and PHYCOLINK goat anti-GST allophycocyanin (Prozyme, PJ252p1). […]
606 Compounds were incubated with mature stage V gametocytes ([…], kind gift from Professor Chris Janse
607 at Leiden University Medical Center (LUMC), the Netherlands) for 48 hours in 384 well plates before
608 gamete formation was triggered by a drop in temperature and addition of xanthurenic acid. […]
611 Multiple data sets using different gametocyte cultures were collected on each of two separate days.
613 Activity against exoerythrocytic stages
614 Primary human hepatocytes (H1500.H15B+ Lot No. HC10-10 Cryopreserved human hepatocytes)
615 were cultured for 2 days and then overlaid with P. falciparum NF54 sporozoites and compounds.
616 Supernatant was refreshed daily with fresh compounds.

P. falciparum Dd2 = assay: 72-h sensitivity of wildtype Dd2 parent line; type: cell-based; settings: Plasmodium falciparum, 72-h exposure
Method: (§1) 700 the drug plate. Lowest drug treatment and a lethal dose of chloroquine (200 nM) served as reference
(§2) 701 controls. Growth inhibition was analysed after 72 h using the Renilla-Glo(R) Luciferase Assay System (ref
(§3) 702 no E2750 Promega) and the GloMax® Discover Multimode Microplate Reader (Promega), and IC50 values
(§4) 703 were obtained from corrected dose-response curves using GraphPad Prism (version 8; GraphPad Software). […]
(§5) 729 Cam 3.II_Rev (25) trophozoite-infected RBCs (25-30 h p.i.) were incubated with inhibitor for 3 h at 10%
(§6) 730 hematocrit and 5% parasitemia. The RBC pellet was washed 3 x in PBS + cOmplete. Cells were centrifuged
(§7) 731 at 380 x g for 5 min and the pelleted cells lysed by resuspension in PBS + 0.05% saponin for 5 min on ice.

PfYRS knockdown line = assay: Growth inhibition of aptamer-regulatable PfYRS knockdown line (luciferase, 72 h); type: cell-based, Plasmodium falciparum; settings: for IC50: Plasmodium falciparum
Source text: 674 Generation and analysis of PfYRS knock-down transfectants
675 A conditional regulatable line for the cytosolic PfYRS (PF3D7_0807900) was generated by integrating the
676 gene regulatable system, TetR-DOZI-RNA aptamer module at the 3'-end of the target gene, in P. falciparum
677 parasites using CRISPR-Cas9 and homology-driven repair (55, 56). A line harbourbing an aptamer-
678 regulatable fluorescent protein (eYFP) integrated in the cg6 locus is used as the control (55). Transfection
679 into parasites was carried out by preloading RBCs with the donor vector as described previously (57).
680 Briefly, 50 μg of purified plasmid DNA was mixed with human RBCs and subjected to 8 square wave
681 electroporation pulses of 365 V for 1 ms each, separated by 0.1 s in a 0.2 cm cuvette. The plasmid DNA
682 preloaded cells were inoculated with NF54 expressing Cas9 and T7 RNA polymerase. […]
696 Stock solutions of ML901, DHA or borrelidin (Cayman Chemicals) were dispensed into 96-well U-bottom
697 BD Falcon™ plates and serially diluted in complete medium to yield final concentrations ranging from 20-
698 0.08 nM. Synchronous ring-stage YRScyt conditional knockdown line and the aptamer-regulatable control
699 line in varying aTc concentrations (high = 50 or 500 nM, low = 1 nM, and no aTc) were distributed into
as §1, §2, §3, §4
706 CRISPR/Cas9 was used to generate parasites encoding the S234C mutation in exon 2 of PfYRS, as shown
707 in Suppl Figure 6. Two guide RNAs (gRNA1: […] and gRNA2:
708 […]) were selected using Benchling (benchling.com), and cloned into the
709 pDC2-coCas9-gRNA plasmid essentially as described previously (58). A donor template of 645 bp,
710 encompassing the majority of the 708 bp exon 2, was synthesized (ThermoFisher) and cloned into the
711 AatII/EcoRI sites of both the pDC2-coCas9-gRNA1 and pDC2-coCas9-gRNA2 plasmids. In addition to
712 the TCC>TGC (S234C) mutation, additional silent shield mutations were introduced to prevent gRNA-
713 Cas9 complex binding, as shown in Suppl Figure 6. Ring-stage P. falciparum parasites (Dd2 strain) at 10%
714 parasitemia (150 µL of packed cells) were transfected with 50 µg of plasmid DNA using a BioRad Gene
715 Pulser II (310 V, 950 µF), and selected with 5 nM WR99210 (Jacobus Pharmaceuticals) for 8 days, after
716 which culture was continued without drug pressure until transfectants were obtained. Clones of the
717 PfYRSS234C mutant parasites were isolated by limiting dilution and verified by Sanger sequencing.
719 Protein translation assay
720 P. falciparum Cam 3.II_Rev (25) schizont- (43-48 h p.i.) infected RBCs were pre-incubated with inhibitor
Using a modification of a published procedure (14), the
722 cells were labelled with O-propargyl-puromycin (OPP; 4 µM) for 1 h, washed 3x (PBS +3% serum) and
723 then fixed for 10 minutes (4% formaldehyde/0.02% glutaraldehyde in PBS). The click reaction was
724 performed for 1 h in the presence of CuSO4 (0.1 mM), THPTA (0.5 mM) and sodium ascorbate (5 mM) to
725 bring about azide-alkyne cycloaddition to Alexa Fluor 488 azide (0.1 µM). Flow cytometry was performed
726 using the FITC and Cy™5.5 channels to detect the Alexa Fluor 488 and PI, respectively.
as §5, §6, §7

`Nc1ncnc2c1c(OC(F)F)nn2[C@@H]1O[C@H](COS(N)(=O)=O)[C@@H](O)[C@H]1O` [ML901] was tested, and the IC50 (HCT116) was 2280 nM, the IC50 (human Atg7) was 33 nM and the IC50 (P. falciparum Dd2) was 2.2 ± 0.3 nM. It also gave an IC50 (PfYRS knockdown line; as stated in main text, aTc condition not given, read-out: IC50 against the knockdown parasites) of 0.4 nM, an IC50 (PfYRS knockdown line; high aTc (50 nM), read-out: IC50 against PfYRS knockdown line) of 3.9 ± 0.9 nM and an IC50 (PfYRS knockdown line; low aTc (1 nm), read-out: IC50 against PfYRS knockdown line) of 0.5 ± 0.1 nM. The IC50 (PfYRS knockdown line; no aTc, read-out: IC50 against PfYRS knockdown line) was 0.3 ± 0.1 nM and the “Fold change in IC50 (high aTc/ no aTc), PfYRS knockdown line” value (PfYRS knockdown line; high aTc 50 nM) was 13.
